Patent publication US20260285846A1, “REV-ERB AGONISTS FOR TH17-MEDIATED INFLAMMATORY DISORDERS” (UNIVERSITY OF FLORID RESEARCH FOUNDATION, iNCORPORATED, priority 2021, published 2026)

The molecules below were run against REV-ERBα LBD (Homo sapiens, UniProt P20393, DEL324-422) (assay: biochemical). Conditions: FRET assay; 6xHistag-REV-ERBα LBD with FITC-labeled SMRT corepressor peptide; read-out: REVERBα (Agonism of REV-ERBα, EC50).
Procedure, shortened: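 Serially diluted ligands were incubated 2 h at 4° C, in triplicate, with E. coli-expressed His-REV-ERBα LBD (281-614 Δ324-422 or 381-579; 4 nM), Tb-anti-His (1 nM) and FITC-labelled SMRT peptide (400 nM). EC50 came from sigmoidal fits of the 520/495 nm TR-FRET ratio.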

Sequence of REV-ERBα LBD (P20393 with tags, fused parts or gaps DEL324-422): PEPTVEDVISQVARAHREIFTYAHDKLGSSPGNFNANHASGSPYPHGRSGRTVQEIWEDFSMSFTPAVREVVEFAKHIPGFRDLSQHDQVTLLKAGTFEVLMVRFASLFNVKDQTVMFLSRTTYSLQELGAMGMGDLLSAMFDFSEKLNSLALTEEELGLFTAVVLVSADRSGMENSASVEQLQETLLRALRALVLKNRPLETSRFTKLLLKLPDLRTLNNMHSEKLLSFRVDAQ
Sequence of REV-ERBα LBD (Q9Y618 2335-2356 partner limits assumed): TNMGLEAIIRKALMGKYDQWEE

Row | SMILES | EC50
1 | CC(C)(C)Cn1cc([C@H](NS(=O)(=O)N2CCC2)C(F)F)c2cc(F)c(-c3ccccc3C(F)(F)F)cc21 [Compound 31, (S)—N-(2,2-difluoro-1-(5-fluoro-1-neopentyl-6-(2-(trifluoromethyl)phenyl)-1H-indol-3-yl)ethyl)azetidine-1-sulfonamide] | < 100 nM
2 | CC(C)(C)Cn1cc([C@H](NS(=O)(=O)C2CC2)C(F)F)c2cc(F)c(-c3c(C(F)F)ccnc3C#N)cc21 [Compound 122, N-((1S)-1-(6-(2-cyano-4-(difluoromethyl)pyridin-3-yl)-5-fluoro-1-neopentyl-1H-indol-3-yl)-2,2-difluoroethyl)cyclopropanesulfonamide] | < 100 nM
3 | CC(C)(C)Cn1cc([C@H](NS(=O)(=O)C2CC2)C(F)F)c2cc(F)c(-c3ccc(C#N)nc3C(F)(F)F)cc21 [Compound 110, (S)—N-(1-(6-(6-cyano-2-(trifluoromethyl)pyridin-3-yl)-5-fluoro-1-neopentyl-1H-indol-3-yl)-2,2-difluoroethyl)cyclopropanesulfonamide] | < 100 nM
4 | Cc1ccnc(C(F)F)c1-c1ccc2c([C@H](NS(=O)(=O)C3CC3)C(F)F)cn(CC(C)(C)C)c2c1 [Compound 128, (S)—N-(1-(6-(2-(difluoromethyl)-4-methylpyridin-3-yl)-1-neopentyl-1H-indol-3-yl)-2,2-difluoroethyl)cyclopropanesulfonamide] | < 100 nM
5 | CC(C)S(=O)(=O)N[C@@H](c1cn(CC(C)(C)C)c2cc(-c3cccnc3C(F)(F)F)c(F)cc12)C(F)F [Compound 42, (S)—N-(2,2-difluoro-1-(5-fluoro-1-neopentyl-6-(2-(trifluoromethyl)pyridin-3-yl)-1H-indol-3-yl)ethyl)propane-2-sulfonamide] | < 100 nM
6 | CC(NS(=O)(=O)C1CC1)c1cn(CC(C)(C)C)c2cc(-c3ncccc3C#N)c(F)cc12 (single isomer, unassigned) [Compound 20, (S or R)—N-(1-(6-(3-cyanopyridin-2-yl)-5-fluoro-1-neopentyl-1H-indol-3-yl)ethyl)cyclopropanesulfonamide] | 100 to 1000 nM
7 | O=S(=O)(N[C@@H](c1cn(C2CC(F)C2)c2cc(-c3cc(F)cnc3C(F)(F)F)c(F)cc12)C(F)F)C1CC1 (stereo partly drawn) [Compound 182, (S)—N-(2,2-difluoro-1-(5-fluoro-6-(5-fluoro-2-(trifluoromethyl)pyridin-3-yl)-1-(3-fluorocyclobutyl)-1H-indol-3-yl)ethyl)cyclopropanesulfonamide] | < 100 nM
8 | CC(NS(=O)(=O)C1CC1)c1cn(CC(C)(C)C)c2cc(-c3ncccc3OC(F)F)c(F)cc12 (centres unmarked) [Compound 61, N-(1-(6-(3-(difluoromethoxy)pyridin-2-yl)-5-fluoro-1-neopentyl-1H-indol-3-yl)ethyl)cyclopropanesulfonamide] | < 100 nM
9 | CC(NS(=O)(=O)C1CC1)c1cn(CC(C)(C)C)c2cc(C3CCOCC3)ccc12 (single isomer, unassigned) [Compound 24, (S or R) N-(1-(1-neopentyl-6-(tetrahydro-2H-pyran-4-yl)-1H-indol-3-yl)ethyl)cyclopropanesulfonamide] | 100 to 1000 nM
10 | N#Cc1nccc(C(F)(F)F)c1-c1nc2c(cc1F)c([C@H](NS(=O)(=O)C1CC1)C(F)F)cn2C1CCC1 [Compound 160, N-((1S)-1-(6-(2-cyano-4-(trifluoromethyl)pyridin-3-yl)-1-cyclobutyl-5-fluoro-1H-pyrrolo[2,3-b]pyridin-3-yl)-2,2-difluoroethyl)cyclopropanesulfonamide] | < 100 nM
11 | Cc1ncccc1-c1cc2c(cc1F)c(C(C)NS(=O)(=O)C1CC1)cn2CC(C)(C)C (centres unmarked) [Compound 36, N-(1-(5-fluoro-6-(2-methylpyridin-3-yl)-1-neopentyl-1H-indol-3-yl)ethyl)cyclopropanesulfonamide] | < 100 nM
12 | CC(C)(C)Cn1cc([C@H](NS(=O)(=O)C2CC2)C(F)F)c2ccc(-c3c(C(F)(F)F)ccc[n+]3[O-])cc21 [Compound 106, (S)-2-(3-(1-(cyclopropanesulfonamido)-2,2-difluoroethyl)-1-neopentyl-1H-indol-6-yl)-3-(trifluoromethyl)pyridine 1-oxide] | 100 to 1000 nM
13 | CC(C)(C)Cn1cc([C@H](NS(=O)(=O)C2CC2)C(F)F)c2cc(F)c(-c3ncccc3Cl)cc21 [Compound 90, (S)—N-(1-(6-(3-chloropyridin-2-yl)-5-fluoro-1-neopentyl-1H-indol-3-yl)-2,2-difluoroethyl)cyclopropanesulfonamide] | < 100 nM
14 | [2H]C1([2H])CC(S(=O)(=O)N[C@@H](c2cn(CC(C)(C)C)c3cc(-c4ccccc4C(F)(F)F)ccc23)C(F)F)C1 [Compound 163, (S)—N-(2,2-difluoro-1-(1-neopentyl-6-(2-(trifluoromethyl)phenyl)-1H-indol-3-yl)ethyl)cyclobutane-1-sulfonamide-3,3-d2] | < 100 nM
15 | CC(C)(C)Cn1cc([C@H](NS(=O)(=O)C2CC2)C(F)F)c2cc(F)c(-c3c(C#N)ccnc3C(F)(F)F)cc21 [Compound 55, N-((1S)-1-(6-(4-cyano-2-(trifluoromethyl)pyridin-3-yl)-5-fluoro-1-neopentyl-1H-indol-3-yl)-2,2-difluoroethyl)cyclopropanesulfonamide] | < 100 nM
16 | CN(C)S(=O)(=O)N[C@@H](c1cn(CC(C)(C)C)c2cc(-c3ncc(F)cc3C(F)(F)F)ccc12)C(F)F [Compound 74] | < 100 nM
17 | CC(C)(C)Cn1cc([C@H](NS(=O)(=O)C2CC2)C(F)F)c2cc(F)c(-c3c(F)cccc3C(F)F)cc21 [Compound 116, N-((1S)-1-(6-(2-(difluoromethyl)-6-fluorophenyl)-5-fluoro-1-neopentyl-1H-indol-3-yl)-2,2-difluoroethyl)cyclopropanesulfonamide] | < 100 nM
18 | CC(C)(C)Cn1cc([C@H](NS(=O)(=O)C2CCC2)C(F)F)c2ccc(-c3cccnc3C(F)(F)F)cc21 [Compound 14, (S)—N-(2,2-difluoro-1-(1-neopentyl-6-(2-(trifluoromethyl)pyridin-3-yl)-1H-indol-3-yl)ethyl)cyclobutanesulfonamide] | < 100 nM
19 | CN(C)S(=O)(=O)N[C@@H](c1cn(CC(C)(C)C)c2cc(-c3c(C#N)cccc3C(F)(F)F)ccc12)C(F)F [Compound 75] | < 100 nM
20 | CC(C)(C)Cn1cc([C@H](NS(=O)(=O)C2CC2)C(F)F)c2cc(F)c(-c3cc(F)cnc3C(F)(F)F)nc21 [Compound 148, (S)—N-(2,2-difluoro-1-(5-fluoro-6-(5-fluoro-2-(trifluoromethyl)pyridin-3-yl)-1-neopentyl-1H-pyrrolo[2,3-b]pyridin-3-yl)ethyl)cyclopropanesulfonamide] | < 100 nM
21 | Cc1ccncc1-c1cc2c(cc1F)c(C(C)NS(=O)(=O)C1CC1)cn2CC(C)(C)C (centres unmarked) [Compound 71, N-(1-(5-fluoro-6-(4-methylpyridin-3-yl)-1-neopentyl-1H-indol-3-yl)ethyl)cyclopropanesulfonamide] | < 100 nM
22 | O=S(=O)(N[C@@H](c1cn(C2CCC2)c2nc(-c3cccnc3C(F)(F)F)c(F)cc12)C(F)F)C1CC1 [Compound 147] | < 100 nM
23 | CC(C)(C)Cn1cc([C@H](NS(=O)(=O)C2CC2)C(F)F)c2cc(F)c(-c3ncc(Cl)cc3F)cc21 [Compound 92, (S)—N-(1-(6-(5-chloro-3-fluoropyridin-2-yl)-5-fluoro-1-neopentyl-1H-indol-3-yl)-2,2-difluoroethyl)cyclopropanesulfonamide] | < 100 nM
